Data as given in ChEMBL document CHEMBL4138123, “Design, synthesis and biological evaluation of novel pyrazolochalcones as potential modulators of PI3K/Akt/mTOR pathway and inducers of apoptosis in breast cancer cells” (Eur J Med Chem, 2017).

How the values were obtained:
Type in all cases: functional
SNB-75 [1] = experiment: Cytotoxicity against human SNB75 cells assessed as cell growth at 100 uM after 48 hrs by sulforhodamine B assay relative to control; settings: SNB-75, 48 h, read-out: Activity
LOX IMVI [2] = experiment: Cytotoxicity against human LOXIMVI cells assessed as cell growth at 1 uM after 48 hrs by sulforhodamine B assay relative to control; settings: read-out: Activity
NCI-H322M = experiment: Cytotoxicity against human NCI-H322M cells assessed as cell growth at 10 uM after 48 hrs by sulforhodamine B assay relative to control; settings: read-out: Activity
SK-MEL-2 [3] = experiment: Cytotoxicity against human SK-MEL-2 cells assessed as cell growth at 0.1 uM after 48 hrs by sulforhodamine B assay relative to control; settings: SK-MEL-2, 48 h, read-out: Activity
SNB-75 [4] = experiment: Cytotoxicity against human SNB75 cells assessed as cell growth at 0.01 uM after 48 hrs by sulforhodamine B assay relative to control; settings: SNB-75, 48 h, read-out: Activity
SNB-75 [5] = experiment: Cytotoxicity against human SNB75 cells assessed as cell growth at 10 uM after 48 hrs by sulforhodamine B assay relative to control; settings: SNB-75, 48 h, read-out: Activity
LOX IMVI [6] = experiment: Cytotoxicity against human LOXIMVI cells assessed as cell growth at 0.01 uM after 48 hrs by sulforhodamine B assay relative to control; settings: read-out: Activity
SF-295 [7] = experiment: Cytotoxicity against human SF295 cells assessed as cell growth at 0.01 uM after 48 hrs by sulforhodamine B assay relative to control; settings: SF-295, 48 h, read-out: Activity
SF-295 [8] = experiment: Cytotoxicity against human SF295 cells assessed as cell growth at 100 uM after 48 hrs by sulforhodamine B assay relative to control; settings: SF-295, 48 h, read-out: Activity
SF-295 [9] = experiment: Cytotoxicity against human SF295 cells assessed as cell growth at 1 uM after 48 hrs by sulforhodamine B assay relative to control; settings: SF-295, 48 h, read-out: Activity
SF-295 [10] = experiment: Cytotoxicity against human SF295 cells assessed as cell growth at 0.1 uM after 48 hrs by sulforhodamine B assay relative to control; settings: SF-295, 48 h, read-out: Activity
LOX IMVI [11] = experiment: Cytotoxicity against human LOXIMVI cells assessed as cell growth at 0.1 uM after 48 hrs by sulforhodamine B assay relative to control; settings: read-out: Activity
SK-MEL-2 [12] = experiment: Cytotoxicity against human SK-MEL-2 cells assessed as cell growth at 1 uM after 48 hrs by sulforhodamine B assay relative to control; settings: SK-MEL-2, 48 h, read-out: Activity
SK-MEL-2 [13] = experiment: Cytotoxicity against human SK-MEL-2 cells assessed as cell growth at 100 uM after 48 hrs by sulforhodamine B assay relative to control; settings: SK-MEL-2, 48 h, read-out: Activity
HOP-92 [14] = experiment: Cytotoxicity against human HOP92 cells assessed as cell growth at 1 uM after 48 hrs by sulforhodamine B assay relative to control; settings: HOP-92, 48 h, read-out: Activity
LOX IMVI [15] = experiment: Cytotoxicity against human LOXIMVI cells assessed as cell growth at 100 uM after 48 hrs by sulforhodamine B assay relative to control; settings: read-out: Activity
SNB-75 [16] = experiment: Cytotoxicity against human SNB75 cells assessed as growth inhibition after 48 hrs by sulforhodamine B assay; settings: SNB-75, 48 h
HOP-92 [17] = experiment: Cytotoxicity against human HOP92 cells assessed as cell growth at 100 uM after 48 hrs by sulforhodamine B assay relative to control; settings: HOP-92, 48 h, read-out: Activity
SK-MEL-2 [18] = experiment: Cytotoxicity against human SK-MEL-2 cells assessed as cell growth at 0.01 uM after 48 hrs by sulforhodamine B assay relative to control; settings: SK-MEL-2, 48 h, read-out: Activity
LOX IMVI [19] = experiment: Cytotoxicity against human LOXIMVI cells assessed as cell growth at 10 uM after 48 hrs by sulforhodamine B assay relative to control; settings: read-out: Activity
SNB-75 [20] = experiment: Cytotoxicity against human SNB75 cells assessed as cell growth at 0.1 uM after 48 hrs by sulforhodamine B assay relative to control; settings: SNB-75, 48 h, read-out: Activity
HOP-92 [21] = experiment: Cytotoxicity against human HOP92 cells assessed as cell growth at 10 uM after 48 hrs by sulforhodamine B assay relative to control; settings: HOP-92, 48 h, read-out: Activity
HOP-92 [22] = experiment: Cytotoxicity against human HOP92 cells assessed as growth inhibition after 48 hrs by sulforhodamine B assay; settings: HOP-92, 48 h; for CC50: read-out: LC50 (the source's name)
SK-MEL-2 [23] = experiment: Cytotoxicity against human SK-MEL-2 cells assessed as cell growth at 10 uM after 48 hrs by sulforhodamine B assay relative to control; settings: SK-MEL-2, 48 h, read-out: Activity
OVCAR-8 = experiment: Cytotoxicity against human OVCAR8 cells assessed as growth inhibition after 48 hrs by sulforhodamine B assay; settings: OVCAR-8, 48 h
HOP-92 [24] = experiment: Cytotoxicity against human HOP92 cells assessed as cell growth at 0.01 uM after 48 hrs by sulforhodamine B assay relative to control; settings: HOP-92, 48 h, read-out: Activity
SF-295 [25] = experiment: Cytotoxicity against human SF295 cells assessed as cell growth at 10 uM after 48 hrs by sulforhodamine B assay relative to control; settings: SF-295, 48 h, read-out: Activity
HOP-92 [26] = experiment: Cytotoxicity against human HOP92 cells assessed as cell growth at 0.1 uM after 48 hrs by sulforhodamine B assay relative to control; settings: HOP-92, 48 h, read-out: Activity
SNB-75 [27] = experiment: Cytotoxicity against human SNB75 cells assessed as cell growth at 1 uM after 48 hrs by sulforhodamine B assay relative to control; settings: SNB-75, 48 h, read-out: Activity
SF-295 [28] = experiment: Cytotoxicity against human SF295 cells assessed as growth inhibition after 48 hrs by sulforhodamine B assay; settings: SF-295, 48 h

SMILES | growth at 100 µM (SNB-75 [1]) | growth at 1 µM (LOX IMVI [2]) | growth at 10 µM (NCI-H322M) | growth at 0.1 µM (SK-MEL-2 [3]) | growth at 0.01 µM (SNB-75 [4]) | growth at 10 µM (SNB-75 [5]) | growth at 0.01 µM (LOX IMVI [6]) | growth at 0.01 µM (SF-295 [7]) | growth at 100 µM (SF-295 [8]) | growth at 1 µM (SF-295 [9]) | growth at 0.1 µM (SF-295 [10]) | growth at 0.1 µM (LOX IMVI [11]) | growth at 1 µM (SK-MEL-2 [12]) | growth at 100 µM (SK-MEL-2 [13]) | growth at 1 µM (HOP-92 [14]) | growth at 100 µM (LOX IMVI [15]) | GI50 (SNB-75 [16]) | LC50 (concentration killing 50% of cells) (SNB-75 [16]) | TGI (SNB-75 [16]) | growth at 100 µM (HOP-92 [17]) | also measured
COc1ccc(-c2cc(/C=C/C(=O)c3cc(OC)c(OC)c(OC)c3)[nH]n2)cc1OC | -82% | 78% | -23% | 95% | 88% | -46% | 96% | 97% | -91% | 77% | 87% | 94% | 97% | -92% | 70% | -69% | 1310 nM | 12.7 µM | 3.77 µM | -84% | growth at 0.01 µM (SK-MEL-2 [18]): 100%; growth at 10 µM (LOX IMVI [19]): -91%; growth at 0.1 µM (SNB-75 [20]): 77%; growth at 10 µM (HOP-92 [21]): -25%; GI50 (HOP-92 [22]): 1610 nM; TGI (HOP-92 [22]): 5.48 µM; CC50 (HOP-92 [22]): 26.6 µM; growth at 10 µM (SK-MEL-2 [23]): -12%; GI50 (OVCAR-8): 2550 nM; LC50 (OVCAR-8): 42.1 µM; TGI (OVCAR-8): 11.7 µM; growth at 0.01 µM (HOP-92 [24]): 103%; growth at 10 µM (SF-295 [25]): -46%; growth at 0.1 µM (HOP-92 [26]): 74%; growth at 1 µM (SNB-75 [27]): 63%; GI50 (SF-295 [28]): 1670 nM; LC50 (SF-295 [28]): 12.5 µM; TGI (SF-295 [28]): 4.26 µM
COc1ccc(-c2cc(/C=C/C(=O)c3ccc(N)cc3)[nH]n2)cc1OC | -97% | 96% | 24% | 109% | 81% | 17% | 100% | 83% | -91% | 87% | 90% | 102% | 102% | -86% | 87% | -81% | 2740 nM | 39 µM | 14.2 µM | -81% | growth at 0.01 µM (SK-MEL-2 [18]): 103%; growth at 10 µM (LOX IMVI [19]): -66%; growth at 0.1 µM (SNB-75 [20]): 92%; growth at 10 µM (HOP-92 [21]): 77%; GI50 (HOP-92 [22]): 1490 nM; TGI (HOP-92 [22]): 30.9 µM; CC50 (HOP-92 [22]): 63.9 µM; growth at 10 µM (SK-MEL-2 [23]): 46%; GI50 (OVCAR-8): 2950 nM; LC50 (OVCAR-8): 39 µM; TGI (OVCAR-8): 10.5 µM; growth at 0.01 µM (HOP-92 [24]): 86%; growth at 10 µM (SF-295 [25]): 20%; growth at 0.1 µM (HOP-92 [26]): 87%; growth at 1 µM (SNB-75 [27]): 75%; GI50 (SF-295 [28]): 3580 nM; LC50 (SF-295 [28]): 42.9 µM; TGI (SF-295 [28]): 15.2 µM
